Assays:
[1] = tested on: larvae of case making clothes moths; test: test for controlling harmful insects to clothes, case making clothes moth larvae (Table 1); format: in vivo; design: key to Eating damage degree after 24 hours: A: no eating damage; B: eating damage was only a trace; C: intermediate between ranks B and D; D: large eating damage (damage in absence of insect-proofing agent); conditions: for Number of dead insects after 6 hours / Number of dead insects after 24 hours: 10 case making clothes moth larvae, 500 ml bottle, 24° to 26° C.; for Eating damage degree after 24 hours: wool fabric, case making clothes moth larvae
Experimental: (§1) The solid insect-proofing agent was subjected to the test for controlling harmful insects to clothes.
(§2) A glass bottle having a volume of 500 ml was charged with 10 harmful insects and one square wool fabric piece having a side of 3 cm, and one pellet of the solid insect-proofing agent was placed apart from the wool fabric piece. The bottle was tightly plugged and was allowed to stand in the dark place at a temperature of 24° to 26° C.
(§3) For comparison, commercially available moth-proofing agents, p-dichlorobenzene and naphthalene (each was in the form of a flat disk-shaped pellet having a diameter of 21 mm), were similarly tested, and the test was carried out without using any moth-proofing agent.
(§4) The results of the tests conducted on larvae of case making clothes moths having a body length of about 6 mm as the harmful insects (Example 6 and Comparative Examples 1 to 3) are shown in Table 1, and the results of the test conducted on larvae of varied carpet beetles having a body length of about 4 mm as harmful insects (Example 7 and Comparative Examples 4 to 6) are shown in Table 2.

[2] = tested on: larvae of varied carpet beetles; test: test for controlling harmful insects to clothes, varied carpet beetle larvae (Table 2); format: in vivo; design: key to Eating damage degree after 24 hours: A: no eating damage; B: eating damage was only a trace; C: intermediate between ranks B and D; D: large eating damage (damage in absence of insect-proofing agent); conditions: for Number of dead insects after 6 hours / Number of dead insects after 24 hours: 10 varied carpet beetle larvae, 500 ml bottle, 24° to 26° C.; for Eating damage degree after 24 hours: wool fabric, varied carpet beetle larvae
Experimental: as §1, §2, §3, §4

[3] = tested on: larvae of case making clothes moths; test: killing of case making clothes moth larvae in plugged bottle at 25° C. for 4 hours (Tables 3 and 4); format: in vivo; conditions: 10 larvae, chemicals in the solid state, 2 g, 4 hours (Table 4)
Experimental: Granular trioxane containing 1 ppm of formic acid and 2 ppm of formaldehyde was dissolved in various organic solvents at a predetermined concentration to prepare organic liquid insect-proofing agents.
Square absorbent cotton piece having a side of 3 cm, which was impregnated with 2 g of the organic liquid insect-proofing agent, was placed in the bottom portion of a glass bottle having a volume of 500 ml, and an insect cage of a metal net having a diameter of 3 cm, which contained 10 larvae of case making clothes moths having a body length of about 6 mm and a square wool fabric having a side of 3 cm, was secured the absorbent cotton 5 cm apart therefrom. Then, the bottle was plugged and allowed to stand in a thermostat chamber maintained at 25° C. for 4 hours. Then, the cage was taken up and the state of the larvae of case making clothes was checked.
Each of p-dichlorobenzene, naphthalene and dl-camphor was used in the form of a granular reagent. […] One pack of "Mothproofing Agent for Drawers" supplied by Dainippon Jochugiku (corresponding to 12.5 liters) was used as the pyrethroid type chemicals. No chemical was used in Comparative Example 13.

[4] = it is said; cited from earlier work
[5] = cited from earlier work
insects = test: insecticidal force and repellency, general statement; format: in vivo
rats [6] = conditions: oral administration to rats; cited from earlier work
mice = conditions: cited from earlier work
rats [7] = conditions: cited from earlier work
[8] = tested on: small fruit flies (drosophila); conditions: cited from earlier work
salmonellae = conditions: cited from earlier work
[9] = cited from earlier work; remark: listed apart in the source

Structure (SMILES) | Number of dead insects after 6 hours [1] | Number of dead insects after 24 hours [1] | Eating damage degree after 24 hours [1] | Number of dead insects after 6 hours [2] | Number of dead insects after 24 hours [2] | Eating damage degree after 24 hours [2] | Number of Killed Insects [3] | solubility in water [5] | also measured
Clc1ccc(Cl)cc1 [p-dichlorobenzene] | 5 | 10 | A | 3 | 9 | A | 2 | hardly soluble or is insoluble in water | health effects [4]: causes liver troubles, lung granulomata, cataract and dermatitis
CC1(C)[C@@H]2CC[C@@]1(C)C(=O)C2 (relative stereo) [dl-camphor] | – | – | – | – | – | – | 0 | – | –
C1OCOCO1 [trioxane, 1,3,5-trioxane] | – | – | – | – | – | – | – | soluble in water | insecticidal force (insects; compared with p-dichlorobenzene): weaker than that of p-dichlorobenzene; repellency to insects (insects; in vivo): sufficient repellency to insects; LD50 (rats [6]): 8,500 mg/kg; mutagenicity (mice): no mutagenicity; mutagenicity (rats [7]): no mutagenicity; mutagenicity [8]: no mutagenicity; mutagenicity (salmonellae): no mutagenicity; solubility in other various organic solvents ([5]; organic solvents other than saturated hydrocarbons): highly soluble; solubility in saturated hydrocarbons ([5]; saturated hydrocarbons): poor; stability in highly acidic aqueous solution ([9]; highly acidic aqueous solution): hydrolyzed; stability in neutral or alkaline aqueous solution ([9]; neutral or alkaline aqueous solution): stable; hydrolyzability ([9]; normal state): very low; stability in air ([9]; normal temperature in air): very stable
CC12CCC(CC1=O)C2(C)C (stereo not drawn) [camphor] | – | – | – | – | – | – | – | hardly soluble or is insoluble in water | –
c1ccc2ccccc2c1 [naphthalene] | 0 | 2 | B | 0 | 0 | C | 0 | hardly soluble or is insoluble in water | –
